Biological target: human sphingosine-1-phosphate receptor 1 (S1P1) (Homo sapiens, UniProt P21453)
Test: Inhibition of cAMP production (HTRF cAMP HiRange), S1P1 CHO-K1 cells
Format: cell-based
Conditions: inhibition of cAMP production; potency; read-out: hS1P1 CAMP pEC50 (converted)
How it was run: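 Intracellular cAMP changes read by TR-FRET (HTRF HiRange, 1 h room temperature) after 30 min compound exposure at 37 °C. Cells: overnight-plated CHO-K1 stably expressing tagged human S1P1 with EA-β-arrestin2. Responses normalized to fingolimod.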

human sphingosine-1-phosphate receptor 1 (S1P1), sequence (P21453 whole entry): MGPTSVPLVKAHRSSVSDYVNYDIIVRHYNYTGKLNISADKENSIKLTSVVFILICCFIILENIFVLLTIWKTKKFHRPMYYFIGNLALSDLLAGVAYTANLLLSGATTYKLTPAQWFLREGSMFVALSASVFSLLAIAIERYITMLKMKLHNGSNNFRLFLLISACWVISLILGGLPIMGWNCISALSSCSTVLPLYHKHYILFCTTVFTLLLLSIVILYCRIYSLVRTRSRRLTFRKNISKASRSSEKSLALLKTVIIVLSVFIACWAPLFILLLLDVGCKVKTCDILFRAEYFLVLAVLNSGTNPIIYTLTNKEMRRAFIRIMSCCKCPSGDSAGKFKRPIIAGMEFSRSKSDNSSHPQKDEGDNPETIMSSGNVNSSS

EC50 [nM] | Compound
> 316 | Clc1ncccc1-c1noc(-c2ccc3c(c2)nnn3CC2CC2)n1 [Compound 199, 5-[3-(2-chloropyridin-3-yl)-1,2,4-oxadiazol-5-yl]-1-(cyclopropyl-methyl)-1H-1,2,3-benzotriazole]
> 316 | Cc1ccccc1Cc1noc(-c2ccc3c(c2)nnn3C(C)C)n1 [Compound 202, 5-{3-[(2-methyl-phenyl)methyl]-1,2,4-oxadiazol-5-yl}-1-(propan-2-yl)-1H-1,2,3-benzotriazole]
> 316 | COc1cccnc1-c1noc(-c2ccc3c(c2)nnn3C2CCCC2)n1 [Compound 203, 1-cyclopentyl-5-[3-(3-methoxy-pyridin-2-yl)-1,2,4-oxadiazol-5-yl]-1H-1,2,3-benzotriazole]
> 316 | Cc1cc(C)cc(-c2noc(-c3ccc4c(c3)nnn4C(C)C)n2)c1 [Compound 204, 5-[3-(3,5-dimethy-lphenyl)-1,2,4-oxadiazol-5-yl]-1-(propan-2-yl)-1H-1,2,3-benzotriazole]
> 316 | CCCn1nnc2cc(-c3nc(-c4ccncc4)no3)ccc21 [Compound 205, 1-propyl-5-[3-(pyridin-4-yl)-1,2,4-oxadiazol-5-yl]-1H-1,2,3-benzotriazole]
> 316 | Cc1ccncc1-c1noc(-c2ccc3c(c2)nnn3CC(C)(C)O)n1 [Compound 206, 2-methyl-1-{5-[3-(4-methylpyridin-3-yl)-1,2,4-oxadiazol-5-yl]-1H-1,2,3-benzotriazol-1-yl}propan-2-ol]
< 316 | COc1ccccc1-c1noc(-c2ccc3c(c2)nnn3C(C)(C)C)n1 [Compound 207, 1-tert-butyl-5-[3-(2-methoxyphenyl)-1,2,4-oxadiazol-5-yl]-1H-1,2,3-benzotriazole]
< 316 | C=CCNc1ccc(-c2nc(-c3ccc4[nH]ccc4c3)no2)cc1C#N [Compound 208, 5-(3-(1H-indol-5-yl)-1,2,4-oxadiazol-5-yl)-2-(allylamino) benzonitrile]
< 316 | CCC1(CC)CC(=O)c2cc(-c3nc(-c4ccc(NC(C)=O)cc4)no3)ccc2O1 [Compound 209, N-(4-(5-(2,2-diethyl-4-oxochroman-6-yl)-1,2,4-oxadiazol-3-yl)phenyl)acetamide]
< 316 | N#Cc1cc(-c2nc(-c3ccc4c(c3)CC(=O)N4)no2)ccc1NCC1CC1 [Compound 210, 2-((cyclopropyl-methyl)amino)-5-(3-(2-oxoindolin-5-yl)-1,2,4-oxadiazol-5-yl)benzonitrile]
> 316 | CCC1(CC)CC(=O)c2cc(-c3nc(-c4ccc5[nH]cnc5c4)no3)ccc2O1 [Compound 211, 6-(3-(1H-benzo[d]imidazol-5-yl)-1,2,4-oxadiazol-5-yl)-2,2-diethylchroman-4-one]
< 316 | CCC1(CC)CC(=O)c2cc(-c3nc(-c4ccncc4OC)no3)ccc2O1 [Compound 212, 2,2-diethyl-6-(3-(3-methoxypyridin-4-yl)-1,2,4-oxadiazol-5-yl)chroman-4-one]
> 316 | O=C1CC2(CCOCC2)Oc2ccc(-c3nc(-c4cccnc4)no3)cc21 [Compound 214, 6-[3-(pyridin-3-yl)-1,2,4-oxadiazol-5-yl]-3,4-dihydrospiro[1-benzopyran-2,4′-oxane]-4-one]
> 316 | Cc1ccccc1-c1cnc(-c2ccc3c(c2)nnn3C(C)C)s1 [Compound 216, 2-(1-isopropyl-benzotriazol-5-yl)-5-(o-tolyl)thiazole]
> 316 | CCC1(CC)CC(=O)c2cc(-c3nnc(-c4ccc5c(c4)nnn5C(C)C)o3)ccc2O1 [Compound 223, 2,2-diethyl-6-(5-(1-isopropyl-1H-benzo[d][1,2,3]triazol-5-yl)-1,3,4-oxadiazol-2-yl)chroman-4-one]
< 316 | C=CCNc1ccc(-c2nc(-c3ccc4c(c3)CC(=O)N4)no2)cc1C#N [Compound 224, 2-(allylamino)-5-(3-(2-oxoindolin-5-yl)-1,2,4-oxadiazol-5-yl)benzonitrile]
> 316 | COc1ccc(-c2noc(-c3ccc4c(c3)nnn4C(C)C)n2)cc1OC [Compound 230, 3-(3,4-dimethoxy-phenyl)-5-(1-isopropyl-1H-benzo[d][1,2,3]triazol-5-yl)-1,2,4-oxadiazole]
> 316 | COc1ccccc1-c1noc(-c2ccc3c(c2)nnn3C2CCOCC2)n1 [Compound 231, 5-[3-(2-methoxy-phenyl)-1,2,4-oxadiazol-5-yl]-1-(oxan-4-yl)-1H-1,2,3-benzotriazole]
> 316 | Fc1ccc(-c2noc(-c3ccc4c(c3)nnn4C3CCCC3)n2)cc1 [Compound 232, 1-cyclopentyl-5-[3-(4-fluorophenyl)-1,2,4-oxadiazol-5 yl]-1H-1,2,3-benzotriazole]
> 316 | Brc1ccccc1-c1noc(-c2ccc3c(c2)nnn3C2CCOCC2)n1 [Compound 233, 5-[3-(2-bromophenyl)-1,2,4-oxadiazol-5-yl]-1-(oxan-4-yl)-1H-1,2,3-benzotriazole]
> 316 | Cc1ccc(-c2noc(-c3ccc4c(c3)nnn4C(C)C)n2)cn1 [Compound 236, 5-[3-(6-methylpyridin-3-yl)-1,2,4-oxadiazol-5-yl]-1-(propan-2-yl)-1H-1,2,3-benzotriazole]

EC50 [nM] | Compound
> 316 | CSc1ccc(-c2nc(-c3ccc4c(c3)nnn4C3CCCC3)no2)cc1 [Compound 237, 3-(1-cyclopentyl-1H-benzo[d][1,2,3]triazol-5-yl)-5-(4-(methyl-thio)phenyl)-1,2,4-oxadiazole]
> 316 | OCCn1nnc2cc(-c3noc(-c4ccccc4Br)n3)ccc21 [Compound 238, 2-(5-(5-(2-bromo-phenyl)-1,2,4-oxadiazol-3-yl)-1H-benzo[d][1,2,3]triazol-1-yl)ethanol]
> 316 | Cc1ccsc1-c1noc(-c2ccc3c(c2)nnn3CC2CC2)n1 [Compound 239, 1-(cyclopropyl-methyl)-5-[3-(3-methylthiophen-2-yl)-1,2,4-oxadiazol-5-yl]-1H-1,2,3-benzotriazole]
> 316 | CC(C)n1nnc2cc(-c3noc(-c4ccccc4OC(F)(F)F)n3)ccc21 [Compound 240, 3-(1-isopropyl-1H-benzo[d][1,2,3]triazol-5-yl)-5-(2-(trifluoro-methoxy)phenyl)-1,2,4-oxadiazole]
> 316 | CC(C)n1nnc2cc(-c3nc(-c4ccccn4)no3)ccc21 [Compound 241, 1-(propan-2-yl)-5-[3-(pyridin-2-yl)-1,2,4-oxadiazol-5-yl]-1H-1,2,3-benzotriazole]
> 316 | CCCn1nnc2cc(-c3nc(-c4cccc(C(F)(F)F)c4)no3)ccc21 [Compound 242, 1-propyl-5-{3-[3-(trifluoromethyl)phenyl]-1,2,4-oxadiazol-5-yl}-1H-1,2,3-benzotriazole]
> 316 | Cc1cccc(C)c1-c1noc(-c2ccc3c(c2)nnn3C(C)C)n1 [Compound 243, 3-(2,6-dimethyl-phenyl)-5-(1-isopropyl-1H-benzo[d][1,2,3]triazol-5-yl)-1,2,4-oxadiazole]
< 316 | CC(C)n1nnc2cc(-c3nc(-c4ccncc4)no3)ccc21 [Compound 244, 1-(propan-2-yl)-5-[3-(pyridin-4-yl)-1,2,4-oxadiazol-5-yl]-1H-1,2,3-benzotriazole]
> 316 | Cc1ccccc1-c1noc(-c2ccc3c(c2)nnn3C2CCCCC2)n1 [Compound 245, 1-cyclohexyl-5-[3-(2-methylphenyl)-1,2,4-oxadiazol-5-yl]-1H-1,2,3-benzotriazole]
> 316 | Cc1oc(-c2ccc3c(c2)nnn3C(C)C)nc1-c1ccccc1 [Compound 247, 5-(5-methyl-4-phenyl-1,3-oxazol-2-yl)-1-(propan-2-yl)-1H-1,2,3-benzotriazole]
> 316 | COc1ccc(-c2coc(-c3ccc4c(c3)nnn4C(C)C)n2)cc1 [Compound 250, 5-[4-(4-methoxy-phenyl)-1,3-oxazol-2-yl]-1-(propan-2-yl)-1H-1,2,3-benzotriazole]
> 316 | COc1cccc(OC)c1-c1noc(-c2ccc3c(c2)nnn3C(C)C)n1 [Compound 251, 3-(2,6-dimethoxy-phenyl)-5-(1-isopropyl-benzotriazol-5-yl)-1,2,4-oxadiazole]
< 316 | CC1(C)CCC2(CC1)CC(=O)c1cc(-c3nc(-c4ccncc4)no3)ccc1O2 [Compound 254, 4′,4′-dimethyl-6-[3-(pyridin-4-yl)-1,2,4-oxadiazol-5-yl]-3,4-dihydrospiro[1-benzopyran-2,1′-cyclohexane]-4-one]
> 316 | CC(C)n1nnc2cc(-c3noc(-c4ccc(F)cc4)n3)ccc21 [Compound 255, 5-(4-fluorophenyl)-3-(1-isopropyl-benzotriazol-5-yl)-1,2,4-oxadiazole]
< 316 | CCC1(CC)CC(=O)c2cc(-c3nc(-c4ccc(N)cc4)no3)ccc2O1 [Compound 256, 6-(3-(4-amino-phenyl)-1,2,4-oxadiazol-5-yl)-2,2-diethylchroman-4-one]
< 316 | CC(C)Nc1ccc(-c2nc(-c3ccc4c(c3)CCC(=O)N4)no2)cc1C#N [Compound 259, 2-(isopropylamino)-5-(3-(2-oxo-1,2,3,4-tetrahydroquinolin-6-yl)-1,2,4-oxadiazol-5-yl)benzonitrile]
> 316 | COc1cccc(F)c1-c1noc(-c2ccc3c(c2)nnn3C(C)C)n1 [Compound 260, 3-(2-fluoro-6-methoxy-phenyl)-5-(1-isopropylbenzo-triazol-5-yl)-1,2,4-oxadiazole]
< 316 | CCC1(CC)CC(=O)c2cc(-c3nc(-c4ccc(NS(C)(=O)=O)cc4)no3)ccc2O1 [Compound 262, N-(4-(5-(2,2-diethyl-4-oxochroman-6-yl)-l,2,4-oxadiazol-3-yl)phenyl)methane-sulfonamide]
> 316 | Cc1ccncc1-c1noc(-c2ccc3nnn(C(C)C)c3c2)n1 [Compound 264, 6-[3-(4-methylpyridin-3-yl)-1,2,4-oxadiazol-5-yl]-1-(propan-2-yl)-1H-1,2,3-benzotriazole]
< 316 | CCC1(CC)CC(=O)c2cc(-c3nc(-c4sccc4C)no3)ccc2O1 [Compound 265, 2,2-diethyl-6-(3-(3-methylthiophen-2-yl)-1,2,4-oxadiazol-5-yl)chroman-4-one]
